Data reported in ChEMBL document CHEMBL5620362 (Eur J Med Chem, 2023).
Calls of active or inactive are those of the source. The rule behind the calls is not given here.

Key:
HPAF-II [1] = assay: Antitumor activity against human HPAF-II cells xenografted in nude Balb/cA mouse assessed as tumor growth inhibition at 15 mg/kg, ip qd measured for 12 days relative to control; format: functional; set-up: scale not given: the % may be the effect or the level left; conditions: time 12 day
HPAF-II [2] = assay: Induction of apoptosis in human HPAF-II cells assessed as viable cells at 0.1 uM incubated for 48 hrs by Annexin V-FITC/PI staining based flow cytometry (reference value: 89.73 %); format: functional; conditions: read-out: Activity
NCI-H23 [3] = assay: Induction of apoptosis in human NCI-H23 cells assessed as late apoptotic cells at 0.1 uM incubated for 48 hrs by Annexin V-FITC/PI staining based flow cytometry (reference value: 2.89 %); format: functional
[4] = AUClast in ICR mouse at 3 mg/kg, iv; format: ADME, organism-based; conditions: in vivo
HPAF-II [5] = assay: Induction of apoptosis in human HPAF-II cells assessed as late apoptotic cells at 1 uM incubated for 48 hrs by Annexin V-FITC/PI staining based flow cytometry (reference value: 1.28 %); format: functional
NCI-H358 = assay: Anticancer activity against human NCI-H358 cells incubated for 72 hrs; format: functional, cell-based
HPAF-II [6] = assay: Induction of apoptosis in human HPAF-II cells harboring siROR-gamma at 0.1 uM incubated for 24 hrs by Annexin V-FITC/PI staining based flow cytometry; format: functional, cell-based
[7] = Toxicity in nude Balb/cA mouse xenografted with human HPAF-II cells assessed as swelling at injection site at 15 mg/kg, ip qd measured for 12 days; format: organism-based; conditions: in vivo, 288 h, time 12 day
NCI-H23 [8] = assay: Induction of apoptosis in human NCI-H23 cells assessed as early apoptotic cells at 10 uM incubated for 48 hrs by Annexin V-FITC/PI staining based flow cytometry (reference value: 4.17 %); format: functional
HPAF-II [9] = assay: Cytotoxicity against human HPAF-II cells harboring siROR-gamma assessed as decrease in cell viability at 0.1 uM incubated for 72 hrs by SRB assay; format: functional, cell-based
HPAF-II [10] = assay: Induction of apoptosis in human HPAF-II cells assessed as viable cells at 10 uM incubated for 48 hrs by Annexin V-FITC/PI staining based flow cytometry (reference value: 89.73 %); format: functional; conditions: read-out: Activity
HPAF-II [11] = assay: Downregulation of MEK phosphorylation level in human HPAF-II cells harboring siROR-gamma at 0.1 uM by Western blot analysis; format: functional, cell-based
HPAF-II [12] = assay: Inhibition of colony formation in human HPAF-II cells harboring siROR-gamma 0.1 uM incubated for 6 to 7 days by crystal violet staining based analysis; format: functional, cell-based; conditions: time 6-7 day
[13] = Half life in ICR mouse at 10 mg/kg, po; format: ADME, organism-based; conditions: in vivo
HPAF-II [14] = assay: Induction of apoptosis in human HPAF-II cells assessed as viable cells at 1 uM incubated for 48 hrs by Annexin V-FITC/PI staining based flow cytometry (reference value: 89.73 %); format: functional; conditions: read-out: Activity
[15] = Tmax in ICR mouse at 10 mg/kg, po; format: ADME, organism-based; conditions: in vivo
HPAF-II [16] = assay: Antitumor activity against human HPAF-II cells xenografted in nude Balb/cA mouse assessed as tumor growth inhibition at 150 mg/kg, po qd measured for 12 days relative to control; format: functional; set-up: scale not given: the % may be the effect or the level left; conditions: time 12 day
HPAF-II [17] = assay: Anticancer activity against human HPAF-II cells incubated for 72 hrs; format: functional, cell-based
MIA PaCa-2 [18] = assay: Induction of apoptosis in human MIA PaCa-2 cells 1 uM incubated for 48 hrs by Annexin V-FITC/PI staining based flow cytometry; format: functional, cell-based
PANC-1 = assay: Anticancer activity against human PANC-1 cells incubated for 72 hrs; format: functional, cell-based
NCI-H23 [19] = assay: Induction of apoptosis in human NCI-H23 cells assessed as necrotic cells at 1 uM incubated for 48 hrs by Annexin V-FITC/PI staining based flow cytometry (reference value: 0.78 %); format: functional
NCI-H23 [20] = assay: Induction of apoptosis in human NCI-H23 cells assessed as viable cells at 0.1 uM incubated for 48 hrs by Annexin V-FITC/PI staining based flow cytometry (reference value: 92.16 %); format: functional; conditions: read-out: Activity
HPAF-II [21] = assay: Antitumor activity against human HPAF-II cells xenografted in nude Balb/cA mouse assessed as tumor growth inhibition at 180 mg/kg, po qd measured for 12 days relative to control; format: functional; set-up: scale not given: the % may be the effect or the level left; conditions: time 12 day
NCI-H23 [22] = assay: Induction of apoptosis in human NCI-H23 cells assessed as early apoptotic cells at 1 uM incubated for 48 hrs by Annexin V-FITC/PI staining based flow cytometry (reference value: 4.17 %); format: functional
HPAF-II [23] = assay: Induction of apoptosis in human HPAF-II cells assessed as late apoptotic cells at 0.1 uM incubated for 48 hrs by Annexin V-FITC/PI staining based flow cytometry (reference value: 1.28 %); format: functional
[24] = MRT (infinity) in ICR mouse at 10 mg/kg, po; format: ADME, organism-based; conditions: in vivo
HPAF-II [25] = assay: Induction of apoptosis in human HPAF-II cells assessed as early apoptotic cells at 10 uM incubated for 48 hrs by Annexin V-FITC/PI staining based flow cytometry (reference value: 0.90 %); format: functional
HPAF-II [26] = assay: Induction of apoptosis in human HPAF-II cells assessed as early apoptotic cells at 0.1 uM incubated for 48 hrs by Annexin V-FITC/PI staining based flow cytometry (reference value: 0.90 %); format: functional
NCI-H23 [27] = assay: Induction of apoptosis in human NCI-H23 cells assessed as late apoptotic cells at 0.01 uM incubated for 48 hrs by Annexin V-FITC/PI staining based flow cytometry (reference value: 2.89 %); format: functional
HPAF-II [28] = assay: Downregulation of phosphorylated AKT expression in human HPAF-II cells at 0.1 to 1 uM incubated for 48 hrs by Western blot analysis; format: functional, cell-based; conditions: dose 0.1-1 µM
HEK-293T = assay: Cytotoxicity against HEK293T cells incubated for 72 hrs; format: toxicity, cell-based; conditions: human
MIA PaCa-2 [29] = assay: Cytotoxicity against human MIA PaCa-2 cells harboring siROR-gamma assessed as decrease in cell viability at 0.1 uM incubated for 72 hrs by SRB assay; format: functional, cell-based
[30] = Half life in ICR mouse at 3 mg/kg, iv; format: ADME, organism-based; conditions: in vivo
HPAF-II [31] = assay: Downregulation of ERK phosphorylation level in human HPAF-II cells harboring siROR-gamma at 0.1 uM by Western blot analysis; format: functional, cell-based
NCI-H1373 = assay: Anticancer activity against human NCI-H1373 cells incubated for 72 hrs; format: functional, cell-based
CFPAC-1 = assay: Anticancer activity against human CFPAC-1 cells incubated for 72 hrs; format: functional, cell-based

C=C(C)[C@@H]1CC[C@]2(C(=O)NCCCN(C)C)CC[C@]3(C)[C@H](CC[C@@H]4[C@@]5(C)CC[C@H](O)C(C)(C)[C@@H]5CC[C@]43C)[C@@H]12
Activity (HPAF-II [1]): 76% | viability at 0.1 µM (HPAF-II [2]): 59.3% | Activity (NCI-H23 [3]): 12.32% | AUC(0-t) [4]: 2980 ng·h/mL | Activity (HPAF-II [5]): 20.27% | Activity (NCI-H358): Active | Activity (HPAF-II [6]): inactive | Activity [7]: Toxic | Activity (NCI-H23 [8]): 64.02% | Activity (HPAF-II [9]): inactive | viability at 10 µM (HPAF-II [10]): 5.04% | Activity (HPAF-II [11]): Active | inhibition (HPAF-II [12]): inactive | half-life [13]: 11.9 h | viability at 1 µM (HPAF-II [14]): 38.2% | Tmax [15]: 2 h | Activity (HPAF-II [16]): 39% | Activity (HPAF-II [17]): Active | Activity (MIA PaCa-2 [18]): Active | Activity (PANC-1): Active | Activity (NCI-H23 [19]): 1.48% | viability at 0.1 µM (NCI-H23 [20]): 79.5% | Activity (HPAF-II [21]): 49% | Activity (NCI-H23 [22]): 67.63% | Activity (HPAF-II [23]): 12.13% | MRT inf [24]: 16.6 h | Activity (HPAF-II [25]): 48.86% | Activity (HPAF-II [26]): 23.73% | Activity (NCI-H23 [27]): 6.78% | Activity (HPAF-II [28]): Active | Activity (HEK-293T): Non-Toxic | Activity (MIA PaCa-2 [29]): inactive | half-life [30]: 4.5 h | Activity (HPAF-II [31]): Active | Activity (NCI-H1373): Active | Activity (CFPAC-1): Active
